From ChEMBL document CHEMBL6071193, “Structure-Activity Relationship of Potent, Selective, and Orally Bioavailable Molecular Glue Degraders of CK1α” (ACS Med Chem Lett, 2024)
In brackets after ≈: the same amount, converted by molar mass. Activity calls are given as the source filed them. No cut-off for these calls is given here.

Columns and labels:
[1] = AUClast in female CD-1 mouse at 10 mg/kg, po administered as 5% v/v NMP, 5% v/v solutol HS-15, 20% PEG 400 and 70% v/v normal saline formulation and measured after 24 hrs; format: ADME, organism-based; details: in vivo
[2] = Metabolic stability in pooled human liver microsomes assessed as half-life at 10 uM measured upto 4 hrs in presence of NADPH by UPLC-MS/MS analysis; format: ADME, Microsome
[3] = Apparent permeability across apical to basolateral side in MDCK-II cells at 10 micromol/L incubated for 1 hrs by UPLC/MS analysis; format: ADME, cell-based, Canis lupus familiaris; details: dog, mdck-ii, 1 h, 10 µM, dose 10 µmol/L
[4] = Cmax in female CD-1 mouse at 3 mg/kg, iv administered as 5% v/v NMP, 5% v/v solutol HS-15, 20% PEG 400 and 70% v/v normal saline formulation and measured after 24 hrs; format: ADME, organism-based; details: in vivo
[5] = target: T1, Cereblon/Casein kinase I alpha (Homo sapiens, UniProt P48729+Q96SW2); test: PROTAC activity at CRBN/HiBiT-tagged CK1alpha in HEK293 cells transfected with LgBiT expression vector assessed as induction of CK1alpha degradation by measuring maximal efficacy at 10 uM measured after 24 hrs by luminescence based GloMax Discover assay relative to control; format: cell-based
Target sequence in this assay (P48729 2-337 limits assumed): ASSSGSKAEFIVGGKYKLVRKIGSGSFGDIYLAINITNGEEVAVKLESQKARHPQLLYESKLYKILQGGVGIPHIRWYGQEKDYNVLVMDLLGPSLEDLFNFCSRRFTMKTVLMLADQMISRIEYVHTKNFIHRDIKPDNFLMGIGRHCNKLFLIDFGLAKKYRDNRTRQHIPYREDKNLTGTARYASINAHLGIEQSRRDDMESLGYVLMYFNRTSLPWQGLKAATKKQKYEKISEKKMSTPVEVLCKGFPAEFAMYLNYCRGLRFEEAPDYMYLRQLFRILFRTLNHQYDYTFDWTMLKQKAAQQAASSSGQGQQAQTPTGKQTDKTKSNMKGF
Target sequence in this assay (Q96SW2 whole entry partner): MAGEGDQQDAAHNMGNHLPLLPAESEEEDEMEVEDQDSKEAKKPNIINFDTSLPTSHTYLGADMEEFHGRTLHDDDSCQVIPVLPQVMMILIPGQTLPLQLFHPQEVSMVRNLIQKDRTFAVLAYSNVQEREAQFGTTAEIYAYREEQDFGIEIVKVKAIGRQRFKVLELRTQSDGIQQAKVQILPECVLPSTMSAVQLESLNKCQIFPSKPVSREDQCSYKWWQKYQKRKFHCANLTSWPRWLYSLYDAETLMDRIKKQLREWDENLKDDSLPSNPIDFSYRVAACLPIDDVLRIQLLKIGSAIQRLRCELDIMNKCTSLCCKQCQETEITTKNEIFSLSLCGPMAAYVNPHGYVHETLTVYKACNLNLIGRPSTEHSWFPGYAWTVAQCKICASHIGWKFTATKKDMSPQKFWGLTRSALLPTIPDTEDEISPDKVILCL

[6] = target: T1, Cereblon/Casein kinase I alpha; test: Binding affinity to Halo-tagged CRBN (unknown origin)/HiBiT-tagged CK1alpha in HEK293 cells transfected with LgBiT expression vector assessed as ternary complex formation by measuring fold increase in NanoBRET signal preincubated with MG132 for 30 mins followed by compound addition and measured after 2 hrs by NanoBRET assay relative to control; format: cell-based
Target sequence in this assay (P48729 2-337 limits assumed): as the sequence (P48729 2-337 limits assumed) above
Target sequence in this assay (Q96SW2 whole entry partner): as the sequence (Q96SW2 whole entry partner) above

[7] = target: Protein cereblon/Eukaryotic peptide chain release factor GTP-binding subunit ERF3A (Homo sapiens) (UniProt Q96SW2+P15170); test: PROTAC activity at CRBN (unknown origin)/human HiBiT-tagged GSPT1 transfected in HEK293 cells assessed as induction of GSPT1 degradation measured after 24 hrs by Nano-Glo reagent based luminescence analysis; format: cell-based
[8] = Solubility of compound at pH 7.4 incubated for 18 hrs by UV-spectra analysis; format: physicochemical; details: buffer; for solubility: pH 7.4, 18 h
[9] = target: T1, Cereblon/Casein kinase I alpha; test: PROTAC activity at CRBN/HiBiT-tagged CK1alpha in HEK293 cells transfected with LgBiT expression vector assessed as induction of CK1alpha degradation by measuring degradation rate at 10 uM measured after 24 hrs by luminescence based GloMax Discover assay; format: cell-based
Target sequence in this assay (P48729 2-337 limits assumed): as the sequence (P48729 2-337 limits assumed) above
Target sequence in this assay (Q96SW2 whole entry partner): as the sequence (Q96SW2 whole entry partner) above

[10] = Oral bioavailability in female CD-1 mouse at 10 mg/kg administered as 5% v/v NMP, 5% v/v solutol HS-15, 20% PEG 400 and 70% v/v normal saline formulation and measured after 24 hrs; format: ADME, organism-based; details: in vivo
[11] = target: T1, Cereblon/Casein kinase I alpha; test: PROTAC activity at CRBN/HiBiT-tagged CK1alpha in HEK293 cells transfected with LgBiT expression vector assessed as induction of CK1alpha degradation measured after 24 hrs by luminescence based GloMax Discover assay; format: cell-based
Target sequence in this assay (P48729 whole entry): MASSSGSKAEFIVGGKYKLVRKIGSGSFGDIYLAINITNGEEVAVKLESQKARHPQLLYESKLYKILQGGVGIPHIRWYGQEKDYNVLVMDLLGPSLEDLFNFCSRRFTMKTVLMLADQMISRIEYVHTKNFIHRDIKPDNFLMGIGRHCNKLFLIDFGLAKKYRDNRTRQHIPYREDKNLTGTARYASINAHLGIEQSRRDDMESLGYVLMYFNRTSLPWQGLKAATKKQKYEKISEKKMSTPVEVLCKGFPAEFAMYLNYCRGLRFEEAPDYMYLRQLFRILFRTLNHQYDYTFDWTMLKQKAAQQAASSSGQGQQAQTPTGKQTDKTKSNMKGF
Target sequence in this assay (Q96SW2 whole entry): as the sequence (Q96SW2 whole entry partner) above

HEK293 = test: Cytotoxicity against HEK293 cells expressing HiBiT-tagged CK1alpha at 0.0001 to 100 uM measured over 24 hrs by Cell-Titer Glo assay; format: toxicity, cell-based; details: human, hek293, 24 h, dose 0.0001-100 µM
[12] = Volume of distribution at steady state in female CD-1 mouse at 3 mg/kg, iv administered as 5% v/v NMP, 5% v/v solutol HS-15, 20% PEG 400 and 70% v/v normal saline formulation and measured after 24 hrs; format: ADME, organism-based; details: in vivo
[13] = Tmax in female CD-1 mouse at 10 mg/kg, po administered as 5% v/v NMP, 5% v/v solutol HS-15, 20% PEG 400 and 70% v/v normal saline formulation and measured after 24 hrs; format: ADME, organism-based; details: in vivo
Cereblon/Ikaros = Cereblon/Ikaros (Homo sapiens, UniProt Q96SW2+Q13422); test: PROTAC activity at CRBN/HiBiT-tagged IKZF1 in human Jurkat cells transfected with LgBiT expression vector assessed as induction of IKZF1 degradation measured after 24 hrs by luminescence based GloMax Discover assay; format: cell-based
[14] = target: T1, Cereblon/Casein kinase I alpha; test: Binding affinity to Halo-tagged CRBN (unknown origin)/HiBiT-tagged CK1alpha in HEK293 cells transfected with LgBiT expression vector assessed as ternary complex formation preincubated with MG132 for 30 mins followed by compound addition and measured after 2 hrs by NanoBRET assay; format: cell-based
Target sequence in this assay (P48729 whole entry): as the sequence (P48729 whole entry) above
Target sequence in this assay (Q96SW2 whole entry): as the sequence (Q96SW2 whole entry partner) above

[15] = Stability in mouse plasma assessed as half-life at 10 uM measured upto 48 hrs by UPLC-MS/MS analysis; format: ADME, cell-free; details: 48 h, 10 µM
[16] = Stability in human plasma assessed as half-life at 10 uM measured upto 48 hrs by UPLC-MS/MS analysis; format: ADME, cell-free
Jurkat = test: Cytotoxicity against human Jurkat cells expressing HiBiT-tagged IKZF1 at 0.0001 to 100 uM measured over 24 hrs by Cell-Titer Glo assay; format: toxicity, cell-based; details: dose 0.0001-100 µM
[17] = Cmax in female CD-1 mouse at 10 mg/kg, po administered as 5% v/v NMP, 5% v/v solutol HS-15, 20% PEG 400 and 70% v/v normal saline formulation and measured after 24 hrs; format: ADME, organism-based; details: in vivo
[18] = Apparent permeability across basolateral to apical side in MDCK-II cells at 10 micromol/L incubated for 1 hrs by UPLC/MS analysis; format: ADME, cell-based, Canis lupus familiaris; details: dog, mdck-ii, 1 h, 10 µM, dose 10 µmol/L
[19] = AUClast in female CD-1 mouse at 3 mg/kg, iv administered as 5% v/v NMP, 5% v/v solutol HS-15, 20% PEG 400 and 70% v/v normal saline formulation and measured after 24 hrs; format: ADME, organism-based; details: in vivo
MOLM-13 [20] = test: Antiproliferative activity against human MOLM-13 cells incubated for 72 hrs by Cell-Titer Glo assay; format: functional, cell-based; details: MOLM-13, 72 h
[21] = Half-life in female CD-1 mouse at 3 mg/kg, iv administered as 5% v/v NMP, 5% v/v solutol HS-15, 20% PEG 400 and 70% v/v normal saline formulation and measured after 24 hrs; format: ADME, organism-based; details: in vivo
[22] = Clearance in female CD-1 mouse assessed as hepatic blood flow at 3 mg/kg, iv administered as 5% v/v NMP, 5% v/v solutol HS-15, 20% PEG 400 and 70% v/v normal saline formulation and measured after 24 hrs; format: ADME, organism-based; details: in vivo
[23] = Metabolic stability in mouse liver microsomes assessed as half-life at 10 uM measured upto 4 hrs in presence of NADPH by UPLC-MS/MS analysis; format: ADME, Microsome; details: microsomes, 4 h, 10 µM
MOLM-13 [24] = test: Downregulation of CK1alpha protein level in human MOLM-13 cells at 1 uM measured after 4 hrs by TMT-proteomic analysis; format: functional, cell-based
[25] = Metabolic stability in human hepatocytes assessed as half-life; format: ADME, cell-based, Hepatocyte
[26] = Half-life in female CD-1 mouse at 3 mg/kg, iv administered as 5% v/v NMP, 5% v/v solutol HS-15 and 70% v/v normal saline formulation and measured after 24 hrs; format: ADME, organism-based; details: in vivo
[27] = Cmax in female CD-1 mouse at 10 mg/kg, po administered as 5% v/v NMP, 5% v/v solutol HS-15 and 70% v/v normal saline formulation and measured after 24 hrs; format: ADME, organism-based; details: in vivo
[28] = Volume of distribution at steady state in female CD-1 mouse at 3 mg/kg, iv administered as 5% v/v NMP, 5% v/v solutol HS-15 and 70% v/v normal saline formulation and measured after 24 hrs; format: ADME, organism-based; details: in vivo
[29] = AUClast in female CD-1 mouse at 3 mg/kg, iv administered as 5% v/v NMP, 5% v/v solutol HS-15 and 70% v/v normal saline formulation and measured after 24 hrs; format: ADME, organism-based; details: in vivo
[30] = Cmax in female CD-1 mouse at 3 mg/kg, iv administered as 5% v/v NMP, 5% v/v solutol HS-15 and 70% v/v normal saline formulation and measured after 24 hrs; format: ADME, organism-based; details: in vivo
[31] = AUClast in female CD-1 mouse at 10 mg/kg, po administered as 5% v/v NMP, 5% v/v solutol HS-15 and 70% v/v normal saline formulation and measured after 24 hrs; format: ADME, organism-based; details: in vivo
[32] = Oral bioavailability in female CD-1 mouse at 10 mg/kg administered as 5% v/v NMP, 5% v/v solutol HS-15 and 70% v/v normal saline formulation and measured after 24 hrs; format: ADME, organism-based; details: in vivo
[33] = Metabolic stability in CD1 mouse hepatocytes assessed as half-life; format: ADME, cell-based, Hepatocyte; details: mouse

Chain of Protein cereblon/Eukaryotic peptide chain release factor GTP-binding subunit ERF3A (Homo sapiens) (P15170 whole entry, looked up): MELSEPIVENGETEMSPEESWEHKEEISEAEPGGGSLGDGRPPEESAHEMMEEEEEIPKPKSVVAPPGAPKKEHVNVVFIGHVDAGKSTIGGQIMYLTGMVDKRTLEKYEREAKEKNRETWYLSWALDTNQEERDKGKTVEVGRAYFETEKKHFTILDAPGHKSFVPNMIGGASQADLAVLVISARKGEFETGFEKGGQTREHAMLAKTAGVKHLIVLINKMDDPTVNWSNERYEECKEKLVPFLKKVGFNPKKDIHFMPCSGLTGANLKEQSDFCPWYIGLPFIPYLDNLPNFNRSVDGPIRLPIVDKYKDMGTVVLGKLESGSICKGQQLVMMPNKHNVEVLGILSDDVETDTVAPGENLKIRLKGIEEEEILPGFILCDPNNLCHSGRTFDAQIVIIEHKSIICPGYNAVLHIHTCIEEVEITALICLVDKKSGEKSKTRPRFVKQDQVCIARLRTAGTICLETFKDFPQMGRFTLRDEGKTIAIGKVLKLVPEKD
Chain of Protein cereblon/Eukaryotic peptide chain release factor GTP-binding subunit ERF3A (Homo sapiens) (Q96SW2 whole entry, looked up): as the sequence (Q96SW2 whole entry partner) above

SMILES	AUClast [1] [ng·h/mL]	t1/2 [2] [h]	Papp [3] [×10⁻⁶ cm/s]	Cmax [4] [ng/mL]	Emax [5] [%]	solubility [8] [µM]	Activity [9] [h⁻¹]	F [10] [%]	DC50 [11] [nM]	Vdss [12] [L/kg]	t1/2 [15] [h]	t1/2 [16] [h]	Cmax [17] [ng/mL]	Papp [18] [×10⁻⁶ cm/s]	AUClast [19] [ng·h/mL]	IC50 (MOLM-13 [20]) [nM]	t1/2 [21] [h]	t1/2 [23] [h]	Activity (MOLM-13 [24])	t1/2 [25] [h]	also measured
O=C1CCC(N2Cc3cc(NC(=O)c4cccc(F)c4)ccc3C2=O)C(=O)N1 (stereo not given)	2804	> 10	0.6	6450	88	19 (≈ 7.25 µg/mL)	1.3	41	4	0.88	10	10.6	1617	1.8	2049	28	1.19	> 10	Active	–	fold change (FC) [6]: 7.4; Activity [7]: inactive; Activity (HEK293): Non-Toxic; Tmax [13]: 0.25 h; Activity (Cereblon/Ikaros): inactive; EC50 [14]: 119 nM; Activity (Jurkat): Non-Toxic; QH [22]: 27%
O=C1CCC(N2Cc3cc(Nc4noc5cc(F)ccc45)ccc3C2=O)C(=O)N1 (stereo not given)	–	–	19.7	–	95	26 (≈ 10.3 µg/mL)	3.5	–	4	–	17	–	–	10.4	–	21	–	> 10	–	> 3.6	t1/2 [26]: 1.98 h; Cmax [27]: 330 ng/mL; Vdss [28]: 1.34 L/kg; AUClast [29]: 911 ng·h/mL; Cmax [30]: 4240 ng/mL; AUClast [31]: 306 ng·h/mL; F [32]: 10%
O=C1CCC(N2Cc3cc(Nc4noc5ccccc45)ccc3C2=O)C(=O)N1 (stereo not given)	264	> 10	24.5	2700	95	–	3.5	9.5	1	1.11	25	8.5	207	26.2	832	13	0.35	> 10	Active	> 3.6	t1/2 [33]: > 3.6 h; solubility at 18 h ([8]; pH 7.4): 36 µM (≈ 13.5 µg/mL)
